Data as given in US6466814B1, “Method of magnetic resonance investigation” (Amersham Health AS, priority 1998, dated 2002).
Like-named read-outs stand apart in the source and are kept apart here.

Columns and labels:
[1] = T1-values for the 13C atom (water solution and solid); assay type: physicochemical; settings: 7 T
Text: (§1) T1-values for the ^13C atom in 1-^13C-2,2,2′,2′,2″,2″-hexadeuterotris(hydroxymethyl)nitromethane
(§2) T1-values for the ^13C atom in 2-^13C-2,2-bis(trideuteromethyl)-1,1,3,3-tetradeuteropropane-1,3-diol

[2] = T1-values for the 13C atom in human bloodplasma; assay type: physicochemical; settings: 37° C., 7 T
Text: as §1, §2

[3] = 13C-signal enhancement after low-field pumping and dissolution (solution experiments); assay type: physicochemical; settings: 20 mg solid in 3 ml deuterium oxide, 40° C., holding field 0.4 T
Description: A sample of solid 1-^13C-2,2,2′,2′,2″,2″-hexadeuterotris(hydroxymethyl)nitromethane was subjected to a magnetic field of 6.56 T at a temperature of 2.5 K for 10 minutes. The sample was then removed from the centre of the magnet to the stray field (7 mT) for a duration 1 s and then returned to the magnet. After another 10 minutes the process was repeated one more.
A sample of solid 1-^13C-2,2,2′,2′,2″,2″-hexadeuterotris(hydroxymethyl)nitromethane (20 mg) was subjected to the above-mentioned pumping procedure (see Examples 5-7) and then in less than 1 second moved to a holding field of 0.4 T where also a sample of deuterium oxide (3 ml) at a temperature of 40° C., stirred by nitrogen bubbling, was kept. […] The sample was inserted into the spectrometer and a ^13C-spectrum was recorded. […]
A sample of solid 2-^13C-2,2-bis(trideuteromethyl)-1,1,3,3-tetradeuteropropane-1,3-diol (20 mg) was subjected to the above-mentioned pumping procedure (see Examples 5-7) and then in less than 1 second moved to a holding field of 0.4 T where also a sample of deuterium oxide (3 ml) at a temperature of 40° C., stirred by nitrogen bubbling, was kept. […] The sample was inserted into the spectrometer and a ^13C-spectrum was recorded. […]

[4] = T1 in the blood after injection of the dissolved polarised agent; assay type: in vivo; settings: 300 mg dissolved in 10 ml Ringers Solution, 37° C., pH 7.4, injected
Description: 300 mg of sterile Na2^13CO3 or NaH^13CO3 is placed inside a 10 ml plastic injection syringe. The gas inside the syringe is enriched with >20% […]. The syringe is placed inside a magnet (1-20 T) at a temperature of about 4 K (0.001-5 K) until thermodynamic equilibrium is reached.
The syringe is removed and transported to the subject located in the MRI magnet. 10 ml of sterile Ringers Solution (at 37° C., pH 7.4) is aspirated and injected at a rate of 10 ml/sec immediately after the high T1 agent has dissolved. 13C MRI is performed using a fast pulse sequence. T1 in the blood is about 20 s and the distribution of the agent is followed on the MR imager.

[5] = solid
Text: Where Mmax is the magnetisation of the sample after complete relaxation at the final field.
This procedure can be repeated after the protons have repolarised again, successively building up the carbon polarisation until the spin-temperature of the two nuclei become the same. […] Generally fluorine relaxes even faster than protons and it would be possible to include a fluorine atom in the contrast agent molecule as an internal relaxation agent.
It is also possible to use quadrupolar nuclei for this process. […] The magnetic storage field must be large enough to avoid overlap of the resonances of the wanted nucleus and any rapidly relaxing quadrupolar nuclei. It is known that this phenomenon causes the rapid relaxation of frozen ^129Xe in a low field, when spin diffusion to the quadrupolar ^131Xe becomes efficient.

Compound | T1-value for the 13C atom ([1]; H2O, air saturated, 37° C.) | T1-value for the 13C atom ([1]; H2O, degassed, 37° C.) | T1-value for the 13C atom ([1]; Solid, 2.5 K) | T1-value for the 13C atom ([1]; Solid, 20° C.) | T1-value for the 13C atom [2] | Time until a clear solution was obtained [3] | T1 in the blood [4] | also measured
[2H]C([2H])(O)[13C]([N+](=O)[O-])(C([2H])([2H])O)C([2H])([2H])O [1-^13C-2,2,2′,2′,2″,2″-hexadeuterotris(hydroxymethyl)nitromethane] | 95 s | 102 s | 198000 s | 1320 s | 60 s | less than 1 S | – | T1-value for the 13C atom ([1]; Solid, −30° C.): 2820 s
[2H]C([2H])([2H])[13C](C([2H])([2H])[2H])(C([2H])([2H])O)C([2H])([2H])O [2-^13C-2,2-bis(trideuteromethyl)-1,1,3,3-tetradeuteropropane-1,3-diol] | 133 s | 157 s | 162000 s | 237 s | 96 s | less than 1 S | – | –
O=[13C]([O-])[O-].[Na+].[Na+] [Na2^13CO3] | – | – | – | – | – | – | about 20 s | –
O=[13C]([O-])O.[Na+] [NaH^13CO3, sodium bicarbonate—^13C] | – | – | – | – | – | – | about 20 s | –
CC(=O)[O-].[Na+] [sodium acetate] | – | – | – | – | – | – | – | T1,0 (time constant for relaxation at no external magnetic field) ([5]; carbonyl carbon): about 5 seconds; T1 of the carbonyl carbon ([5]; at 7 T): 1700 s; T1 of the carbonyl carbon ([5]; room temperature): 1700 s; T1 of the protons ([5]; room temperature): 31 s; T1 of the sodium ions ([5]; room temperature): 1.7 s
